Source: article PMC3625590, “NBM-T-L-BMX-OS01, Semisynthesized from Osthole, Is a Novel Inhibitor of Histone Deacetylase and Enhances Learning and Memory in Rats” (Evidence-based Complementary and Alternative Medicine : eCAM, 2013)

Assays:
HDAC8 = HDAC8 activity assay (Fluor-de-Lys) in brain nuclear extracts after behavioural tests; type: in vivo, Sprague-Dawley rats; conditions: 5 mg/kg/d i.p., compared with trained-control animals
Method: For the HDAC8 activity assay, the deacetylase activity of HDAC8 was measured using the commercially available Fluor-de-Lys-HDAC8 deacetylase substrate (Enzo, New York, NY, USA) according to the manufacturer instructions. […] The homogenate was centrifuged at 1000 ×g for 10 min to obtain the nuclei pellet. […] To determine the HDAC activity, 10 μg of nuclear extracts was incubated with a specific substrate (100 μM) for 30 min at 37°C, followed by the addition of a developer solution for 30 min at 37°C. […] Data were normalized to swimming control, footshock control, and nontrained-control animals.

naïve rats = assay: Water-maze learning, naïve rats; type: in vivo, Sprague-Dawley rats; conditions: 5 mg/kg/d i.p.
Method: SAHA was supplied by NatureWise Biotech and Medicals Corporation (Taipei, Taiwan). […] (St. Louis, MO, USA). The BMX and SAHA stock (100 mg/mL) was dissolved in DMSO and diluted with saline to a final concentration of 0.5 mg/mL (in 0.5% DMSO/saline). […] SD rats were randomly divided into 3 groups. For the naïve animal experiments, the BMX-injected or SAHA-injected groups were injected with BMX (5 mg/kg/d) or SAHA (5 mg/kg/d) intraperitoneally 7 d prior to behavioral experiments and during the experimentation. The control group received the 0.5% DMSO/saline injection. The injection volume was 10 μL/g of body weight. The injections were performed once per day. For the amnesia experiment, the protocol was adopted from previous studies with modifications. […] The control group received the 0.5% DMSO/saline injection. The injection volume was 10 μL/g of body weight. […] The method was adopted from that of a previous study with modifications. A plastic circular pool 2.0 m in diameter and 0.6 m in height was filled with water (25 ± 2°C) to a depth of 20 cm. A circular platform (8 cm in diameter) was placed at a specific location from the edge of the pool and submerged 2-3 cm below the water surface. Water was made cloudy by adding toxic-free dye. Distinctive visual cues were set on the wall. For spatial learning, animals were subjected to 3 trials per day, with one trial early in the morning, one trial at noon, and another in the late afternoon. The training procedure lasted 4 days, and a total of 12 trials were given. This procedure was adopted because spaced training is a better paradigm to facilitate memory consolidation. For these trials, the rats were positioned at different starting points spaced equally around the perimeter of the pool in random order. They had 120 s to find the hidden platform. […] The time each animal took to reach the platform was recorded as the escape latency. […] The rats were placed in the pool with the platform removed, and the time they spent in each quadrant (Quadrants 1, 2, 3, and 4) was recorded. […]

[1] = tested on: primary hippocampal neurons; assay: MTT cell survival assay; type: cell-based, Sprague-Dawley rats; conditions: 1, 2.5, 5 and 10 μM, DIV 5, 24 h
Method: The primary hippocampal culture was prepared as described previously. To culture embryonic hippocampal primary neurons, pregnant Sprague-Dawley rats were purchased from the National Laboratory Center in Taiwan. The hippocampal tissue from the embryos of the Sprague-Dawley rats (E19) was dissociated with 100 U/mL of papain (Sigma-Aldrich) and plated onto poly-L-lysine-coated coverslips at a density of 1 × 10^4 cells/cm^2 with a minimal essential medium containing 5% calf serum, 5% horse serum, and 50 ng/mL insulin-transferrin-selenite (Sigma-Aldrich). Three hours after plating, the medium was replaced with 2% of a B27-neurobasal medium (Invitrogen, Carlsbad, CA, USA) containing 0.5 mM glutamine and 12.5 μM glutamate.
Cell viability was evaluated by an MTT (3-(4,5-dimethylthiazol-2-yl)-2,5-diphenyl tetrazolium bromide, Sigma-Aldrich) assay 24 h after SAHA and BMX treatment at concentrations of 0, 1, 2.5, 5, and 10 μM. The protocol was performed as described previously. Cells were incubated with an MTT (0.5 mg/mL) reagent (Sigma-Aldrich) at 37°C for 1 h. The MTT solution was removed, and DMSO was added to the wells shaken at room temperature for 1 h. The amount of MTT formazan product was quantified by measuring its absorbance at 570 and 630 nm by using an ELISA plate reader (SpectraMax M2 Microplate Readers, Molecular Devices, Sunnyvale, CA, USA).

Sco-induced amnesia rats = assay: Water-maze learning, Sco-induced memory impairment; type: in vivo, Sprague-Dawley rats; conditions: Sco 1.5 mg/kg/d; BMX or SAHA 5 mg/kg/d i.p.
Method: SAHA was supplied by NatureWise Biotech and Medicals Corporation (Taipei, Taiwan). […] (St. Louis, MO, USA). The BMX and SAHA stock (100 mg/mL) was dissolved in DMSO and diluted with saline to a final concentration of 0.5 mg/mL (in 0.5% DMSO/saline). […] SD rats were randomly divided into 3 groups. For the naïve animal experiments, the BMX-injected or SAHA-injected groups were injected with BMX (5 mg/kg/d) or SAHA (5 mg/kg/d) intraperitoneally 7 d prior to behavioral experiments and during the experimentation. The control group received the 0.5% DMSO/saline injection. The injection volume was 10 μL/g of body weight. The injections were performed once per day. For the amnesia experiment, the protocol was adopted from previous studies with modifications. […] The control group received the 0.5% DMSO/saline injection. The injection volume was 10 μL/g of body weight. […] The method was adopted from that of a previous study with modifications. A plastic circular pool 2.0 m in diameter and 0.6 m in height was filled with water (25 ± 2°C) to a depth of 20 cm. A circular platform (8 cm in diameter) was placed at a specific location from the edge of the pool and submerged 2-3 cm below the water surface. Water was made cloudy by adding toxic-free dye. Distinctive visual cues were set on the wall. For spatial learning, animals were subjected to 3 trials per day, with one trial early in the morning, one trial at noon, and another in the late afternoon. The training procedure lasted 4 days, and a total of 12 trials were given. This procedure was adopted because spaced training is a better paradigm to facilitate memory consolidation. For these trials, the rats were positioned at different starting points spaced equally around the perimeter of the pool in random order. They had 120 s to find the hidden platform. If a rat could not find the platform, it was guided to the platform and was allowed to remain there for 20 s. The time each animal took to reach the platform was recorded as the escape latency. A probe trial of 120 s was given on day 5 to test their memory retention. The rats were placed in the pool with the platform removed, and the time they spent in each quadrant (Quadrants 1, 2, 3, and 4) was recorded. Quadrant 4 is the target quadrant. For the trained and swimming control experiments, rats in the trained group were subjected to the regular water maze learning procedure. At the end of the experiment, the rats were subjected to visible platform learning. For visible platform learning, a flag was mounted on the platform, and the platform was raised 2.5 cm above the surface of the water. In addition, the dye had not been added, so that the animals could see the location of the platform from the water. […]

[2] = tested on: histone 4 lysine 12 acetylation (AcH4K12); assay: Western blot of histone 4 lysine 12 acetylation in brain tissue after behavioural tests; type: in vivo, Sprague-Dawley rats; conditions: 5 mg/kg/d i.p.
Method: The hippocampus tissue and primary hippocampal cells were lysed and sonicated in an RIPA buffer (50 mM Tris-HCl (pH 7.4), 150 mM NaCl, 2 mM EDTA, 1% IGEPAL CA-630, 1 mM phenylmethylsulfonyl fluoride (PMSF), 20 μg/mL pepstatin A, 20 μg/mL leupeptin, 20 μg/mL aprotinin, 50 mM NaF, and 1 mM Na3VO4). The protocol was performed as described previously. The lysate was resolved by 8% SDS-PAGE. The proteins resolved by SDS-PAGE were transferred to the PVDF membrane (Millipore, Bedford, MA, USA) and western blotting was conducted with the following antibodies: rabbit anti-acetyl histone 4 lysine 12 and mouse anti-histone 4 (Cell signaling, Danvers, MA, USA). The secondary antibodies used include the HRP-conjugated goat-anti-rabbit IgG antibody and HRP-conjugated goat-anti-mouse IgG antibody (Millipore). The membrane was developed by reacting with a chemiluminescent HRP substrate (Millipore) and exposure to X-ray film. The protein bands were quantified using the NIH Image J Software.

[3] = after novel object recognition task

O=C(CCCCCCC(=O)Nc1ccccc1)NO [SAHA, suberoylanilide hydroxamic acid, reference compound]
HDAC8 activity in amygdala (HDAC8; 7 days after footshock): did not have increased HDAC8 activity | HDAC8 activity in hippocampus (HDAC8; [3]): did not have further increased HDAC8 activity | HDAC8 activity in hippocampus (HDAC8; after water-maze probe trial): did not increase HDAC8 activity | escape latency in finding the hidden platform (naïve rats): shortened escape latency | visual discrimination ability, motor coordination, and motivational state (swimming speed, visible platform learning) (naïve rats): Neither BMX nor SAHA affects | probe trial, time spent in target quadrant (naïve rats; day 5): showed no difference compared with the control group | survival rate of primary hippocampal neurons (MTT) [1]: reduced the survival rate of the hippocampal neurons at concentrations of 2.5, 5, and 10 μM | escape latency in finding the hidden platform (Sco-induced amnesia rats): attenuates Sco-induced longer escape latency | probe trial, time spent in target quadrant (Sco-induced amnesia rats): spent more time in the target quadrant | H4K12 acetylation in amygdala ([2]; 7 days after footshock): showed the highest H4K12 acetylation | H4K12 acetylation in hippocampus [2, 3]: showed the highest H4K12 acetylation | H4K12 acetylation in hippocampus ([2]; after water-maze experiment): showed the highest H4K12 acetylation
